Experimental data published in ChEMBL document CHEMBL2216751, “PI3Kδ and PI3Kγ as targets for autoimmune and inflammatory diseases” (J Med Chem, 2012).

The compounds below were run against Phosphatidylinositol 4,5-bisphosphate 3-kinase catalytic subunit gamma isoform (Homo sapiens, UniProt P48736) (assay: Inhibition of PI3Kgamma-mediated Akt phosphorylation in T cells by flow cytometry). Details: not given.
Assay type: cell-based, T-cell

Chain of Phosphatidylinositol 4,5-bisphosphate 3-kinase catalytic subunit gamma isoform (P48736 whole entry, canonical isoform): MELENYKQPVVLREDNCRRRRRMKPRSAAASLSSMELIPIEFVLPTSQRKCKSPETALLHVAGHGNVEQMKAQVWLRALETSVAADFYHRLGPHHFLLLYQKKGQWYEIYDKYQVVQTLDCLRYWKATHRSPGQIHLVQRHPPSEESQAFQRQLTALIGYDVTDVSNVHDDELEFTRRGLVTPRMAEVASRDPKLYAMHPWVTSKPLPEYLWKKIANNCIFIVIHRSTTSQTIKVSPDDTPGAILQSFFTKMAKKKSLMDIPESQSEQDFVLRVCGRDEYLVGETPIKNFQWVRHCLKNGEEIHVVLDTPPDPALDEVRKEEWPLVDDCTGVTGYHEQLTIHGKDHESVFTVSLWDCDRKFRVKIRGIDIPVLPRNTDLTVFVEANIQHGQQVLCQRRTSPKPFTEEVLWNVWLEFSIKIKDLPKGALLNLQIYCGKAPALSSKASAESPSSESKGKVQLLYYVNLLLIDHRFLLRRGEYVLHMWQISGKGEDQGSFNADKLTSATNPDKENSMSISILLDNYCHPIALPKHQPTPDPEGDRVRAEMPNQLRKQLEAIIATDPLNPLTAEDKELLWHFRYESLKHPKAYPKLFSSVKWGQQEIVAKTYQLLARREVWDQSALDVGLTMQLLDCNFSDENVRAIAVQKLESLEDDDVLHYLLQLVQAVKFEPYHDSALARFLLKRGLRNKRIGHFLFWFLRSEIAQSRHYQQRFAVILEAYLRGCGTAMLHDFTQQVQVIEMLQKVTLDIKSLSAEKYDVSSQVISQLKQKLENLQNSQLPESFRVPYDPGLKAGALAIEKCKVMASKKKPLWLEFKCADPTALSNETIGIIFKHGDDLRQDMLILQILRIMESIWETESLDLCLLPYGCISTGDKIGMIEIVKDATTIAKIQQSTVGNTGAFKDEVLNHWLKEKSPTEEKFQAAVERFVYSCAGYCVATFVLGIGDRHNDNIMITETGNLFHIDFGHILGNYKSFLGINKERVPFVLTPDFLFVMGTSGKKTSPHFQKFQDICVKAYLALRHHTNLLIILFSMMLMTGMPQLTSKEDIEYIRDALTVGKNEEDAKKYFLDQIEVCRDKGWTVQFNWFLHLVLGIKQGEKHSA

Row | SMILES | IC50 [nM]
1 | CN1CCOC(C(=O)Nc2cc(-c3cccc4[nH]ccc34)cc3[nH]ncc23)C1 (stereo not drawn) | ≤ 1000

The compounds below were run against T1, Phosphatidylinositol 4,5-bisphosphate 3-kinase catalytic subunit delta isoform (Homo sapiens, UniProt O00329). Details: not given.
T1 sequence (O00329 whole entry): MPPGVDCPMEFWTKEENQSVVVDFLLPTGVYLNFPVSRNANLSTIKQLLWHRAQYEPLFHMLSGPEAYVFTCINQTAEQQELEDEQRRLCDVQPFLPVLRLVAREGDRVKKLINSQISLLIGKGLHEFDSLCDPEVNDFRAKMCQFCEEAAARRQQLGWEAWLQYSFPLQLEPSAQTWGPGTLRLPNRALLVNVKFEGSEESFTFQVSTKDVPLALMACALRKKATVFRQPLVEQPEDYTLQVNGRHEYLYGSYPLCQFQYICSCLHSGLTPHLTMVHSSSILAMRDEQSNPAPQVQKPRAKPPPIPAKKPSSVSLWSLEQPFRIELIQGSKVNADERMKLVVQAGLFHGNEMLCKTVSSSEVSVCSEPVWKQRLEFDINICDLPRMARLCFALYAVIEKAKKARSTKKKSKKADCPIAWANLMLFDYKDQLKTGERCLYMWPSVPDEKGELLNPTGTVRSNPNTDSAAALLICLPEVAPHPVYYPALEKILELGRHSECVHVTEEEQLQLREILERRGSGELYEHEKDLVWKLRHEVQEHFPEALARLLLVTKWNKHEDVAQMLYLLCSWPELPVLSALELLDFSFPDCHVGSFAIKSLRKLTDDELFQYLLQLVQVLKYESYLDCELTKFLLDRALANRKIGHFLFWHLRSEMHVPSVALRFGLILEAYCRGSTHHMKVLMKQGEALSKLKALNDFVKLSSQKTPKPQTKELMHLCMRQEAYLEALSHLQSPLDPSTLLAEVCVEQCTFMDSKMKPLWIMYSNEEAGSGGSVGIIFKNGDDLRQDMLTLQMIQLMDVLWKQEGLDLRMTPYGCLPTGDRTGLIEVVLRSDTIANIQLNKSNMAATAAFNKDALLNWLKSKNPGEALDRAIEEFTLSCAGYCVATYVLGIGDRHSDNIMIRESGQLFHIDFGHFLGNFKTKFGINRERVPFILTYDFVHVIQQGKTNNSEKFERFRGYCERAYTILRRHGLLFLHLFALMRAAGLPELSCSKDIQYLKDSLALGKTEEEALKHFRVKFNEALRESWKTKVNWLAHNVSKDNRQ

Row | SMILES | pIC50 | Ki [nM]
2 | CN1CCOC(C(=O)Nc2cc(-c3cccc4[nH]ccc34)cc3[nH]ncc23)C1 (stereo not drawn) | >= 5 | –
3 | CCN(CC)C(=O)c1cccc(Nc2nc3ccc(-c4cncc(OC)c4)cc3s2)n1 | – | 3
4 | C[C@H](Nc1ncnc(N)c1C#N)c1nc2ccc(F)cc2c(NCCS(C)(=O)=O)c1-c1ccccc1 | – | 2.26
5 | C[C@@H]1CN(Cc2nnc(-c3cc(-c4cccc5[nH]ccc45)cc4[nH]ncc34)o2)C[C@H](C)O1 | >= 5 | –
6 | CCOC(=O)CCNC(=O)Nc1nc2c(s1)CN(c1cnc(Cl)c(OC)c1)CC2 | – | 3
7 | O=C(CN1CCOCC1)Nc1cc(-c2cc(F)cc3[nH]ccc23)cc2[nH]ncc12 | >= 5 | –
8 | Cc1c(-c2ccccn2)nc2cc(F)cc(F)c2c1Nc1cc(N2CCOCC2)cnc1-c1ccc(O)cc1 | – | 2.85
9 | CCNC(=O)Nc1nc2ccc(-c3cncc(C(F)(F)F)c3)cc2s1 | – | 10
10 | Cc1nc(C(=O)Nc2cc(-c3cnc4[nH]nc(S(C)(=O)=O)c4c3)cc3[nH]ncc23)cs1 | >= 5 | –
11 | CC(=O)NCCNS(=O)(=O)c1ccc(-c2sc(NC(C)=O)nc2C)o1 | – | 100

Same assay, conditions: read-out: IC50

Row | SMILES | IC50 [nM]
12 | C[C@H](Nc1ncnc2[nH]cnc12)c1nc2ccsc2c(=O)n1-c1ccccc1 | 6
13 | CNc1nc(C)c2cc(-c3cc(O)cc(F)c3)ccc2n1 | < 100
14 | CS(=O)(=O)N1CCN(Cc2cc3nc(-c4c(F)ccc5[nH]ccc45)nc(N4CCOCC4)c3s2)CC1 | < 100
15 | COc1ccc(-c2nn(C)c3nc(N)nc(NCc4ccccc4)c23)cc1F | < 2000
16 | CC(=O)Nc1nc2c(s1)-c1c(c(C3CC3)nn1C1CCC(C(=O)N[C@H]3CC[C@H](N4CCCC4)CC3)CC1)CC2 (stereo partly drawn) | < 600
17 | c1ccc2c(N3CCOCC3)nc(-c3cccc4[nH]ccc34)cc2c1 | 260
18 | Nc1ncc(-c2ccc(Cl)c(S(=O)(=O)Nc3ccccc3)c2)nc1C(=O)c1cccnc1 | 12
19 | COc1cc2c(CC3CCCC(C)C3)c(C(=O)Nc3nn[nH]n3)sc2cc1C (stereo not drawn) | 3
20 | CN(C)CCCOc1cccc2c1nc(C(F)F)n2-c1nc(OC2CCN(C(=O)CCl)CC2)nc(N2CCOCC2)n1 | > 100
21 | Cc1nc(NC(=O)NCCC(=O)OC(C)(C)C)sc1-c1ccc(S(C)(=O)=O)c(F)c1 | 16
22 | Cc1cccc2cc(C(C)Nc3ncnc4[nH]cnc34)nc(OC3CCN(C)CC3)c12 (stereo not drawn) | < 100
23 | C[C@@H](c1nc2ccsc2c(=O)n1-c1ccccc1)n1cnc2c(N)ncnc21 | 40
24 | OCCn1cnc2c(-n3c(C(F)F)nc4ccccc43)nc(N3CCOCC3)nc21 | < 30
25 | O=C(NCC(=O)N1CCCC1)Nc1nc2ccc(-c3cncc(C(F)(F)F)c3)cn2n1 | < 100
26 | Cn1c(C(=O)NCC(F)(F)F)nc2c(N3CCC(n4c(=O)[nH]c5ncccc54)CC3)ncnc21 | < 50
27 | CC(=O)Nc1nc(C)c(-c2ccc(Cl)c(S(=O)(=O)N[C@@H](C)C(=O)OC3CCCC3)c2)s1 | < 100
28 | COc1ccc(-c2ccc3c(n2)N(C2=NC(=O)C(C)(C)S2)CCO3)cc1OC | 27
29 | CC(=O)Nc1nc(C)c(-c2csc(C(=O)Nc3nnn[nH]3)n2)s1 | 13
30 | Cc1oc2ncn(CC(C)C)c(=O)c2c1C(=O)NCc1ccccc1 | 2100
31 | CC(=O)Nc1ccc(C(=O)NC2=Nc3cc(N4CCOCC4)ccc3C3=NCCN23)cn1 | < 100
32 | CC(Nc1ncnc2[nH]cnc12)c1c(C#N)c2ccc(Cl)cc2n1-c1cccc(F)c1 (stereo not drawn) | < 50
33 | Cc1cccc2cc(Cn3cnc4c(N)ncnc43)c(N(C)CC3CCCN3C)nc12 (stereo not drawn) | < 50
34 | CC[C@H]1CN(c2sc(-c3nnc[nH]3)c(-c3ccc(Cl)cc3Cl)c2C#N)CCO1 | < 100
35 | COc1ccc(NC(=O)c2c(C)oc3ncn(CC(C)C)c(=O)c23)cc1 | 5.9
36 | Clc1ccc(-c2nc(N3CCOCC3)sc2-c2nnc[nH]2)c(Cl)c1 | < 100

Same assay, conditions: read-out: pIC50 (converted)

Row | SMILES | IC50 [nM]
37 | COc1ccc(-c2cc(-c3ncc(CN4C[C@@H](C)O[C@@H](C)C4)o3)c3cn[nH]c3c2)cc1NS(C)(=O)=O | < 100
38 | CC(C)N1CCN(Cc2cnc(-c3cc(-c4cccc5[nH]ccc45)cc4[nH]ncc34)o2)CC1 [NEMIRALISIB] | < 100
